Paper PMC6820105, “Data on synthesis, ADME and pharmacological properties and early safety pharmacology evaluation of a series of novel NURR1/NOT agonist potentially useful for the treatment of Parkinson's disease” (Data in Brief, 2019)
Like-named read-outs stand apart in the source and are kept apart here. Blank lines part the entries; values can stand above or below the molecule they belong to.

Legend:
[1] = Plasma and heart concentrations after 5-min i.v. administration in anesthetized mongrel dogs; format: in vivo; conditions: iv, dog, 10 mg/kg 5-min i.v.
Method: Cpd 38 was dissolved in a 75% PEG400 aqueous solution and administered to dogs (n = 3) at 10 mg/kg as a single 5-min intravenous infusion under a volume of 0.5 mL/kg. Control animals (n = 3) received the vehicle only, under the same experimental conditions.
Blood samples were drawn from a femoral artery at 10 and 60 minutes after the beginning of the drug perfusion and after centrifugation plasma samples were stored frozen at −20 °C until analysis.
At the end of the experiment (around 60 minutes following the beginning of the drug perfusion), the heart was removed and a few grams of tissue were collected from right and left ventricles stored frozen at - 20 °C until analysis.
Analysis of samples was performed using an exploratory LC-MS-MS assay method. Plasma (LOQ of 2 ng/mL) and tissue (LOQ of 3 ng/g) concentrations of Cpd 38 were determined.

[2] = Plasma and heart concentrations after 5-min i.v. administration in anesthetized male Hartley guinea pigs; format: in vivo; conditions: iv, guinea pig, 10 mg/kg 5-min i.v.
Method: Cpd 38 was dissolved in a 75% PEG400 aqueous solution and administered to guinea pigs (n = 6) at 10 mg/kg as a single 5-min intravenous infusion under a volume of 0.5 mL/kg. Control animals (n = 10) received the vehicle only, under the same experimental conditions.
Blood samples were drawn from a carotid artery at 10 and 30 minutes after the beginning of the drug perfusion and after centrifugation plasma samples were stored frozen until analysis.
At the end of the experiment (around 30 minutes following the beginning of the drug perfusion), the heart was removed and a few grams of tissue were collected from right and left ventricles stored frozen at - 20 °C until analysis.
Analysis of samples was performed using an exploratory LC-MS-MS assay method. Plasma (LOQ of 2 ng/mL) and tissue (LOQ of 10 ng/g) concentrations of Cpd 38 (expressed as active ingredient).were determined.

[3] = test system: anesthetized mongrel dogs; experiment: Hemodynamic, electrocardiographic and electrophysiological effects in anesthetized mongrel dogs; format: in vivo; conditions: dog, 10 mg/kg single 5-min i.v. infusion, monitored up to 60 min, n = 3
Method: Six fasted adult mongrel dogs (weighing 18–26 kg) were anesthetized with 20 mg/kg sodium thiopental i.v. Animals were artificially ventilated with a gaseous mixture composed of O^2/air supplemented with around 1.5% end-tidal fraction of isoflurane. Tidal volume and respiratory rate was set at 20 mL/kg and 16 breaths/min. Arterial blood gas was controlled and respiratory adjusted to maintain pH between 7.36 and 7.44, PaO^2 > 80 mmHg and PaCO^2 < 40 mmHg. Four limbs electrodes were positioned to obtain a surface ECG. Two bipolar electrodes were positioned in the right atrium via a jugular access, one to record the atrial electrogram and the second one to stimulate the atrium. A bipolar electrode and a quadripolar electrode were inserted via venous and arterial femoral access and positioned in the right ventricular apex and in the His bundle region, respectively. These electrodes were connected to a programmable stimulator and to a computerized physiograph system. […]
The auricular diastolic stimulation threshold was evaluated with rectangular current pulse (2 ms duration) increased in steps of 0.1 mA and delivered at fixed rate pacing (S1S1) of 400 or 350 ms in function of animal basal cycle length. […]

[4] = test system: anesthetized male Hartley guinea pigs; experiment: Hemodynamic and electrocardiographic effects in anesthetized male Hartley guinea pigs; format: in vivo; conditions: guinea pig, 10 mg/kg single 5-min i.v. infusion, monitored up to 30 min, n = 6
Method: Male Hartley guinea pigs (weighing 400–500 g) were anesthetized with 35 mg/kg sodium pentobarbital i.p. and let under spontaneous breathing conditions. The body temperature was maintained at 37.5 ± 0.5 °C throughout the experiment. For implantation of vascular catheters, cutaneous incision, subcutaneous and muscular dissections were performed after application of local anesthetic (lidocain, 20 mg/kg). A carotid artery and a jugular vein were catheterized to allow recording of arterial blood pressure and intravenous administration of the drug, respectively. The arterial micromanometer catheter was connected to a pressure transducer. For the electrocardiogram recording, five electrodes were inserted in the subcutaneous layer of fore- and hind-limb. The pressure transducer and ECG electrodes were linked to Gould pre-amplifiers. The amplifiers were connected to a Notocord-Hem computerized data acquisition system and recorded at a sampling rate of 1000 Hz. Either lead I or lead II were recorded, depending on which the better separation of T wave from P wave of the next complex was achieved.
Cpd 38 was dissolved in a 75% PEG400 aqueous solution and administered to guinea pigs (n = 6) at 10 mg/kg as a single 5-min intravenous infusion under a volume of 0.5 mL/kg. Control animals (n = 10) received the vehicle only, under the same experimental conditions. […]

[5] = target: NURR1/NOT nuclear receptor (Homo sapiens, UniProt P43354); experiment: Gal4 reporter gene assay (EC50 / Emax Gal4); format: cell-based; conditions: for Emax Gal4: Table 1
NURR1/NOT nuclear receptor, sequence (P43354 whole entry, the tested form may be a part): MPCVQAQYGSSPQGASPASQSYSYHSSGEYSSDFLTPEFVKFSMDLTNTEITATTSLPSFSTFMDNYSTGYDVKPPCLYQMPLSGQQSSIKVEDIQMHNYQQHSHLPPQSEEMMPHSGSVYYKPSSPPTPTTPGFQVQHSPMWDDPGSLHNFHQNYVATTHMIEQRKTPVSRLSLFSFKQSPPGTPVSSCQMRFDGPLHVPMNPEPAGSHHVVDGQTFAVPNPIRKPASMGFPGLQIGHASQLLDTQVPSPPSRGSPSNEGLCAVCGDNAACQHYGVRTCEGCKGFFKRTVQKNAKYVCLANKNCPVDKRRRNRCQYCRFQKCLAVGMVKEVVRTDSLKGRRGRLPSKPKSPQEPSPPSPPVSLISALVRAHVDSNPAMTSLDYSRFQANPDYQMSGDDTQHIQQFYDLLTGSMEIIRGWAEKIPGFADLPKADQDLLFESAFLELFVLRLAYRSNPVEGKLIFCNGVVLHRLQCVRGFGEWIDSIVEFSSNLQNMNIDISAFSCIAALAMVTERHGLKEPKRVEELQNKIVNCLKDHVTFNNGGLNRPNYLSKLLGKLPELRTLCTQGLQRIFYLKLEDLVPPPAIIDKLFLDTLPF

[6] = heart (right and left ventricles), read-out: Heart concentration
[7] = plasma, mean ± SD, n = 3, read-out: Total plasma concentration
[8] = plasma, read-out: Total plasma concentration
[9] = plasma, mean ± SD, n = 6, read-out: Total plasma concentration
[10] = Table 1, replacements of the hydroxymethyl of cpd 4, read-out: EC50 Gal4

- melting point: 135 to 137 °C
Structure (SMILES): COCc1cccc(-c2ccc3nc(-c4ccc(Cl)cc4)cn3c2)c1 [Cpd S2, 2-(4-Chlorophenyl)-6-(3-(methoxymethyl)phenyl)imidazo[1,2-a]pyridine]

- concentration at 60 min ([1]; heart (right and left ventricles), mean ± SD, n = 3, read-out: Heart concentration): 14600 ± 2700 ng/g
- concentration at 60 min [1, 6]: 40.2 µM
- concentration at 10 min [1, 7]: 23400 ± 2830 ng/mL
- concentration at 10 min [1, 8]: 64.5 µM
- concentration at 60 min [1, 7]: 10100 ± 769 ng/mL
- concentration at 60 min [1, 8]: 27.8 µM
- concentration at 30 min ([2]; heart (right and left ventricles), mean ± SD, n = 6, read-out: Heart concentration): 6010 ± 964 ng/g
- concentration at 30 min [2, 6]: 16.6 µM
- concentration at 10 min [2, 9]: 4660 ± 1350 ng/mL
- concentration at 10 min [2, 8]: 12.8 µM
- concentration at 30 min [2, 9]: 2570 ± 533 ng/mL
- concentration at 30 min [2, 8]: 7.1 µM
Structure (SMILES): CC(C)(O)c1cccc(-c2ccc3nc(-c4ccc(Cl)cc4)cn3c2)c1 [Cpd 38, 2-(3-[2-(4-Chlorophenyl)imidazo[1,2-a]pyridin-6-yl]phenyl)propan-2-ol]
- Hemodynamic, ECG and electrophysiological effects [3]: No major hemodynamic, ECG and electrophysiological effects were observed
- Hemodynamic and ECG effects [4]: No major hemodynamic and ECG effects were observed

- EC50 [5, 10]: > 3000 nM
Structure (SMILES): Clc1ccc(-c2cn3cc(-c4cccc(CN5CCCC5)c4)ccc3n2)cc1 [Cpd S4, 1-(3-(2-(4-chlorophenyl)imidazo[1,2-a]pyridin-6-yl)phenyl)-N-pyrolidine]

- EC50 [5, 10]: > 3000 nM
Structure (SMILES): Clc1ccc(-c2cn3cc(-c4cccc(CN5CCOCC5)c4)ccc3n2)cc1 [Cpd S5, 1-(3-(2-(4-chlorophenyl)imidazo[1,2-a]pyridin-6-yl)phenyl)-N-morpholine]

- melting point: 192 to 194 °C
Structure (SMILES): CC(O)(CO)c1cccc(-c2ccc3nc(-c4ccc(Cl)cc4)cn3c2)c1 (stereo not drawn) [Cpd 41, 2-(3-(2-(4-chlorophenyl)imidazo[1,2-a]pyridin-6-yl)phenyl)propane-1,2-diol]

- melting point: 224 to 225 °C
Structure (SMILES): OC1(c2cccc(-c3ccc4nc(-c5ccc(Cl)cc5)cn4c3)c2)CCOCC1 [Cpd 40, 4-(3-(2-(4-chlorophenyl)imidazo[1,2-a]pyridin-6-yl)phenyl)tetrahydro-2H-pyran-4-ol]

- melting point: 290 to 292 °C
Structure (SMILES): CN(C)Cc1cccc(-c2ccc3nc(-c4ccc(Cl)cc4)cn3c2)c1 [Cpd S3, 1-(3-(2-(4-chlorophenyl)imidazo[1,2-a]pyridin-6-yl)phenyl)-N,N-dimethylmethanamine]

- melting point: 195 to 197 °C
Structure (SMILES): N#Cc1cccc(-c2ccc3nc(-c4ccc(Cl)cc4)cn3c2)c1 [Cpd S10, 3-(2-(4-chlorophenyl)imidazo[1,2-a]pyridin-6-yl)benzonitrile]

- EC50 ([5]; Table 2, alkyl or aryl groups on the carbinol, read-out: EC50 Gal4 t): > 3000 nM
Structure (SMILES): CC(C)CC(O)c1cccc(-c2ccc3nc(-c4ccc(Cl)cc4)cn3c2)c1 (stereo not drawn) [Cpd S15, 1-(3-(2-(4-chlorophenyl)imidazo[1,2-a]pyridin-6-yl)phenyl)-3-methylbutan-1-ol]

- Emax Gal4 [5]: 226 ± 66
- EC50 [5, 10]: 87 ± 28 nM
- melting point: 225 to 227 °C
Structure (SMILES): CNC(=O)c1cccc(-c2ccc3nc(-c4ccc(Cl)cc4)cn3c2)c1 [Cpd S8, 3-(2-(4-chlorophenyl)imidazo[1,2-a]pyridin-6-yl)-N-methylbenzamide]

- melting point: 162 to 164 °C
Structure (SMILES): CCN(CC)C(=O)c1cccc(-c2ccc3nc(-c4ccc(Cl)cc4)cn3c2)c1 [Cpd S9, 3-(2-(4-chlorophenyl)imidazo[1,2-a]pyridin-6-yl)-N,N-diethylbenzamide]

- melting point: 145 to 147 °C
Structure (SMILES): Cc1cccc(-c2ccc3nc(-c4ccc(Cl)cc4)cn3c2)c1 [Cpd S1, 2-(4-Chlorophenyl)-6-(m-tolyl)imidazo[1,2-a]pyridine]

- Emax Gal4 [5]: 210 ± 5
- EC50 [5, 10]: 1580 ± 35 nM
- melting point: 246 to 248 °C
Structure (SMILES): NC(=O)c1cccc(-c2ccc3nc(-c4ccc(Cl)cc4)cn3c2)c1 [Cpd S7, 3-(2-(4-chlorophenyl)imidazo[1,2-a]pyridin-6-yl)benzamide]
